Laboratory results: patent US6407042B1 (Monsanto Technology LLC, priority 1996, dated 2002)

Experiments:
[1] = test system: Velvetleaf (Abutilon theophrasti, ABUTH); experiment: Greenhouse test of herbicidal effectiveness (percent inhibition) on velvetleaf; assay type: in vivo
Description: (§1) The herbicidal effectiveness data set forth herein report “inhibition” as a percentage following a standard procedure in the art which reflects a visual assessment of plant mortality and growth reduction by comparison with untreated plants, made by technicians specially trained to make and record such observations. In all cases, a single technician makes all assessments of percent inhibition within any one experiment or trial. Such measurements are relied upon and regularly reported by Monsanto Company in the course of its herbicide business.
(§2) The following procedure was used for testing compositions of the Examples to determine herbicidal effectiveness, except where otherwise indicated.
(§3) Seeds of the plant species indicated were planted in 85 mm square pots in a soil mix which was previously steam sterilized and prefertilized with a 14-14-14 NPK slow release fertilizer at a rate of 3.6 kg/m3. The pots were placed in a greenhouse with subirrigation. About one week after emergence, seedlings were thinned as needed, including removal of any unhealthy or abnormal plants. to create a uniform series of test pots.
(§4) The plants were maintained for the duration of the test in the greenhouse where they received a minimum of 14 hours of light per day. If natural light was insufficient to achieve the daily requirement, artificial light with an intensity of approximately 475 microeinsteins was used to make up the difference. Exposure temperatures were not precisely controlled but averaged about 27° C. during the day and about 18° C. during the night. Plants were sub-irrigated throughout the test to ensure adequate soil moisture levels.
(§5) A set of pots was left untreated as a reference against which effects of the treatments could later be evaluated.
(§6) Application of glyphosate compositions was made by spraying with a track sprayer fitted with a 9501E nozzle calibrated to deliver a spray volume of 93 liters per hectare (l/ha) at a pressure of 166 kilopascals (kPa). After treatment, pots were returned to the greenhouse until ready for evaluation.
(§7) Treatments were made using dilute aqueous compositions. These could be prepared as spray compositions directly from their ingredients, or by dilution with water of preformulated concentrate compositions.
(§8) For evaluation of herbicidal effectiveness, all plants in the test were examined by a single practiced technician, who recorded percent inhibition, a visual measurement of the effectiveness of each treatment by comparison with untreated plants.

[2] = test system: Japanese millet (Echinochloa crus-galli, ECHCF); experiment: Greenhouse test of herbicidal effectiveness (percent inhibition) on Japanese millet; assay type: in vivo
Description: as §1, §2, §3, §4, §5, §6, §7, §8

[3] = test system: Prickly sida (Sida spinosa, SIDSP); experiment: Greenhouse test of herbicidal effectiveness (percent inhibition) on prickly sida; assay type: in vivo; conditions: for % Inhibition SIDSP: evaluation 10 days after application
Description: as §1, §2, §3, §4, §5, §6, §7, §8

[4] = test system: Hemp sesbania (Sesbania exaltata, SEBEX); experiment: Greenhouse test of herbicidal effectiveness (percent inhibition) on hemp sesbania; assay type: in vivo; conditions: Example 18; 21 days after application
Description: as §2, §3
(§9) The plants were maintained for the duration of the test in the greenhouse where they received a minimum of 14 hours of light per day. […]
as §5
as §6, with “evaluation. […]” for “evaluation.”
as §8

[5] = test system: Common lambsquarter (Chenopodium album, CHEAL); experiment: Greenhouse test of herbicidal effectiveness (percent inhibition) on common lambsquarter; assay type: in vivo; conditions: Example 20; 18 days after application
Description: as §2, §3, §9, §5
as §6, with “evaluation. […]” for “evaluation.”
as §8

[6] = test system: ABUTH and ECHCF; experiment: Greenhouse test, herbicidal effectiveness overall on both species of the Example; assay type: in vivo, Abutilon theophrasti, Echinochloa crus-galli; conditions: post-emergence foliar spray 93 l/ha, comparison as worded in the discussion of the Example
Experimental: The following procedure was used for testing compositions of the Examples to determine herbicidal effectiveness, except where otherwise indicated. […] The pots were placed in a greenhouse with subirrigation. About one week after emergence, seedlings were thinned as needed, including removal of any unhealthy or abnormal plants. to create a uniform series of test pots. The plants were maintained for the duration of the test in the greenhouse where they received a minimum of 14 hours of light per day. […] Exposure temperatures were not precisely controlled but averaged about 27° C. during the day and about 18° C. during the night. Plants were sub-irrigated throughout the test to ensure adequate soil moisture levels. Pots were assigned to different treatments in a fully randomized experimental design with 3 replications. A set of pots was left untreated as a reference against which effects of the treatments could later be evaluated. […] After treatment, pots were returned to the greenhouse until ready for evaluation. Treatments were made using dilute aqueous compositions. […] For evaluation of herbicidal effectiveness, all plants in the test were examined by a single practiced technician, who recorded percent inhibition, a visual measurement of the effectiveness of each treatment by comparison with untreated plants.

[7] = acifluorfen rate 25 g a.i./ha, evaluation 10 days after application
[8] = acifluorfen rate 50 g a.i./ha, evaluation 10 days after application
[9] = acifluorfen rate 100 g a.i./ha, evaluation 10 days after application
[10] = acifluorfen rate 200 g a.i./ha, evaluation 10 days after application
[11] = dicamba rate 25 g a.i./ha, evaluation 17 days after application
[12] = dicamba rate 50 g a.i./ha, evaluation 17 days after application
[13] = dicamba rate 100 g a.i./ha, evaluation 17 days after application
[14] = dicamba rate 200 g a.i./ha, evaluation 17 days after application

O=C(O)c1cc(Oc2ccc(C(F)(F)F)cc2Cl)ccc1[N+](=O)[O-] [Acifluorfen (technical)]
% Inhibition ABUTH [1, 7]: 20%
% Inhibition ABUTH [1, 8]: 32%
% Inhibition ABUTH [1, 9]: 52%
% Inhibition ABUTH [1, 10]: 62%
% Inhibition ECHCF [2, 7]: 2%
% Inhibition ECHCF [2, 8]: 7%
% Inhibition ECHCF [2, 9]: 18%
% Inhibition ECHCF [2, 10]: 35%
% Inhibition SIDSP ([3]; acifluorfen rate 25 g a.i./ha): 15%
% Inhibition SIDSP ([3]; acifluorfen rate 50 g a.i./ha): 17%
% Inhibition SIDSP ([3]; acifluorfen rate 100 g a.i./ha): 35%
% Inhibition SIDSP ([3]; acifluorfen rate 200 g a.i./ha): 40%

COC(=O)NS(=O)(=O)c1ccc(N)cc1 [Asulam (technical)]
% Inhibition ECHCF ([2]; asulam rate 200 g a.i./ha, evaluation 14 days after application): 12%

COc1c(Cl)ccc(Cl)c1C(=O)O [Dicamba (technical)]
% Inhibition ABUTH [1, 11]: 47%
% Inhibition ABUTH [1, 12]: 63%
% Inhibition ABUTH [1, 13]: 82%
% Inhibition ABUTH [1, 14]: 93%
% Inhibition ECHCF [2, 11]: 0%
% Inhibition ECHCF [2, 12]: 0%
% Inhibition ECHCF [2, 13]: 0%
% Inhibition ECHCF [2, 14]: 5%

C[N+](C)(C)CCCNS(=O)(=O)C(F)(F)C(F)(F)C(F)(F)C(F)(F)C(F)(F)C(F)(F)C(F)(F)C(F)(F)F.[I-] [Fluorad FC-135, 3-(((heptadecafluorooctyl)sulfonyl)amino)-N,N,N-trimethyl-1-propaminium iodide]
concentration of Fluorad FC-135 added in tank-mix to Formulation B to bring its herbicidal performance up to that of Formulation C ([1]; Example 21, ABUTH, evaluation 20 days after application): ~0.02%
optimum adjuvant concentration ([1]; Example 25, tank-mix adjuvant for glyphosate as Formulation B, ABUTH, 21 days after application): 0.2%
concentration of Fluorad FC-135 added in tank-mix to Formulation B to bring its herbicidal performance up to that of Formulation C ([2]; Example 21, ECHCF, evaluation 20 days after application): approximately 0.25%
optimum adjuvant concentration ([2]; Example 25, tank-mix adjuvant for glyphosate as Formulation B, ECHCF, 21 days after application): 0.2%
concentration of Fluorad FC-135 added in tank-mix to Formulation B to bring its herbicidal performance up to that of Formulation C ([3]; Example 21, SIDSP, evaluation 20 days after application): ~0.1%

C[n+]1ccc(-c2cc[n+](C)cc2)cc1 [Paraquat dichloride]
inhibition at 25 g/ha ([1]; Abutilon theophrasti, 288 h, Table 82, paraquat rate 25 g a.i./ha, evaluation 12 days after application): 50%
inhibition at 50 g/ha ([1]; Abutilon theophrasti, 288 h, Table 82, paraquat rate 50 g a.i./ha, evaluation 12 days after application): 57%
inhibition at 100 g/ha ([1]; Abutilon theophrasti, 288 h, Table 82, paraquat rate 100 g a.i./ha, evaluation 12 days after application): 73%
inhibition at 200 g/ha ([1]; Abutilon theophrasti, 288 h, Table 82, paraquat rate 200 g a.i./ha, evaluation 12 days after application): 85%
inhibition at 25 g/ha ([2]; Echinochloa crus-galli, 288 h, Table 82, paraquat rate 25 g a.i./ha, evaluation 12 days after application): 83%
inhibition at 50 g/ha ([2]; Echinochloa crus-galli, 288 h, Table 82, paraquat rate 50 g a.i./ha, evaluation 12 days after application): 78%
inhibition at 100 g/ha ([2]; Echinochloa crus-galli, 288 h, Table 82, paraquat rate 100 g a.i./ha, evaluation 12 days after application): 84%
inhibition at 200 g/ha ([2]; Echinochloa crus-galli, 288 h, Table 82, paraquat rate 200 g a.i./ha, evaluation 12 days after application): 95%
inhibition at 25 g/ha ([3]; Sida spinosa, 288 h, Table 82, paraquat rate 25 g a.i./ha, evaluation 12 days after application): 55%
inhibition at 50 g/ha ([3]; Sida spinosa, 288 h, Table 82, paraquat rate 50 g a.i./ha, evaluation 12 days after application): 60%
inhibition at 100 g/ha ([3]; Sida spinosa, 288 h, Table 82, paraquat rate 100 g a.i./ha, evaluation 12 days after application): 69%
inhibition at 200 g/ha ([3]; Sida spinosa, 288 h, Table 82, paraquat rate 200 g a.i./ha, evaluation 12 days after application): 99%

O=C(O)CNCP(=O)(O)O [glyphosate, N-phosphonomethylglycine]
herbicidal activity on SEBEX, result in words [4]: extremely weak
herbicidal activity on CHEAL, result in words [5]: very weak

Steareth-20
herbicidal effectiveness overall (ABUTH and ECHCF), result in words [6]: more effective additives for Formulation B than steareth-10

ceteareth-30
herbicidal effectiveness overall (ABUTH and ECHCF), result in words [6]: more effective additives for Formulation B than steareth-10
